From patent publication US5756478A, “Method for reducing toxicity of D-nucleoside analogs with L-nucleosides” (priority 1996, dated 1998) come the findings set out here.

Molecules are shown by their SMILES. Where “and” joins values, the source holds several entries; their conditions need not be identical. Equal values may be shown once. Entries after “also recorded” stand apart in the source; their conditions may differ. Read-outs that look alike come from different tables or passages of the source.

Data set [1] concerns Mitochondrial DNA (mtDNA). Briefly: Mitochondrial DNA (mtDNA) content of CEM cells (slot blot). It counts as cell-based, Human. The following applies: with AZT, ddC, DDI or D4T. On the procedure: To determine the effect of nucleoside analogues on mtDNA content, CEM cells were treated with various concentrations of drug 8 days with medium and drug changes every 2 days. Cells (1×10^5)are washed twice with phosphate buffered […] (PBS) and resuspended in 25 mM Tris (pH 8.0) and 1 mM EDTA. The cells are lysed by 5 cycles of freeze/thaw. RNAase A (DNase free, final concentration of 0.1 mg/ml) is added to the cel ysate and incubated for 3 hours at 50° C. The lysate is brought to a final concentration of 10×SSC, boiled for 10 min., and applied to a nylon membrane presoaked in 2X SSC using a slot blot apparatus. […] All blots are normalized for loading using an Alu probe (ATCC). Blots are exposed to X-ray film and quantitated using a Molecular Dynamics Personal Densitometer SI.

Data set [2] relates to HIV-1IIIB. Briefly: Anti-HIV combination of D- and L-nucleosides in HIV-1IIIB infected MT-2 cells (isobolograms). Format: cell-based. The following applies: for Effect of L-nucleoside on ID50 of co-administered D-nucleoside: with AZT, D4T, ddC or DDI. On the procedure:
(§1) The following anti-HIV drugs were tested in combination with the L-nucleosides β-L-5-fluoro-2',b 3'-dideoxycytidine [β-L-FddC or L(-)FddC], β-L-5-fluoro-2',3'-dideoxy-2',3'-didehydrocytidine [β-L-Fd4C or L(-)Fd4C], β-L-5-fluoro-2',3'-dideoxy-3'-thiacytidine [L(-)FTC] and β-L-2',3'-dideoxy-3'-thiacytidine [L(-)SddC or 3TC]: 3'-azido-3'deoxythymidine (AZT) as well as the β-D-2',3'-dideoxynucleosides, for example, β-D-2',3'-dideoxycytidine (ddC), β-D-2',3'-dideoxyadenosine, β-D-2',3'-dideoxyinosine (DDI) and β-D-2',3'-didehydro-3'-deoxy-thymidine (D4T). β-L-FddC and β-L-Fd4C was obtained following the method of Lin, et al., J. Med. Chem., 37, no. 6 (1994). L(-)FTC and L(-)SddC were prepared by standard literature procedures. See, for example, Jeong, et al. J. Med. Chem., 36, 181 (1993). AZT was obtained from Sigma Chemical Co., St. Louis, Mo., USA. ddC was obtained from Aldrich Chemical Co., Milwaukke, Wis. USA. DDI and D4T were obtained from Bristol-Myers Co., Wallingford, Conn., USA.
(§2) The above-mentioned drugs were tested using MT-2 cells infected with HIV-1IIIB as described by JW Mellers, et al., Molecular Pharm. 41, 446-451 (1991) with some modification. Briefly, triplicate wells of 96-well plates containing 1×10^4 MT-2 cells were infected with HIV-1IIIB at a multiplicity of infection (MOI) of 0.1 TCID50 per cell (TCID50 - 50% tissue culture infective dose). Serial dilutions of drug were added immediately after infection. Cell viability was quantitated 5 days after infection by the MTT-dye reduction model (Larder, et al. Antimicrob. Agents Chemother. 34, 436-441, 1990). The percentage of protection was calculated with the formula [(a-b/c-b)×100], in which a=the A595 of drug-treated, virus-infected well, b=A595 of no-drug infected wells, and c=A595 of no-drug, uninfected wells.
Isobolograms (FIGS. 1-2) were plotted as the percent change in the ID50 of β-L-FddC (L(-)FddC), L(-)FTC, L(-)SddC (FIGS. 1 and 2) β-L-Fd4C (L(-)Fd4C) at various concentrations in combination with AZT, D4T, ddC or DDI at varying concentations on the x-axis and vice versa on the y-axis. Isobolograms (FIG. 3) were plotted as the percent change in the ID50 of β-L-Fd4C (L(-)Fd4C) at various concentrations in combination with AZT or D4T at varying concentrations on the x-axis and vice-versa on the y-axis.

Data set [3] concerns HIV-1IIIB. Kind of data set: Anti-HIV activity: protection of MT-2 cells infected with HIV-1IIIB (MTT-dye reduction). It counts as cell-based. The following applies: Human immunodeficiency virus 1, MT2, 120 h, MT-2 cells, HIV-1IIIB, MOI 0.1 TCID50 per cell, 5 days, read-out: ID50 (the source's name). How it is done:
as §1, §2
(Formazan colour is commonly taken as a measure of viable cells.)

Data set [4] concerns CEM, a Human T-type lymphoblast tumor cell line. Kind of data set: Cell growth inhibition of CEM cells by D-nucleosides with or without L-nucleosides. It counts as cell-based. The source says:
CEM, a Human T-type lymphoblast tumor cell line was used for this study. […] At the end of four days after the addition of the drug, the cell number was estimated by hemocytometer. […] The data, presented below in Table 1-3, are normalized against the control. The parenthetical values represent the expected effect the combined agents should have on cell growth.

Setting [5] is: Homo sapiens, CCRF-CEM, 96 h, single agent, 1.0 uM, day 4, read-out: Day 4 Cell Growth - % of Control.
Setting [6] is: Homo sapiens, CCRF-CEM, 96 h, single agent, 0.1 uM, day 4, read-out: Day 4 Cell Growth - % of Control.
[7] abbreviates: Homo sapiens, CCRF-CEM, 96 h, single agent, day 4, read-out: Day 4 Cell Growth - % of Control.

As for `Nc1nc(=O)n(C2CCC(CO)O2)cc1F` (single isomer, unassigned) [β-L-FddC, β-L-5-fluoro-2',3'-dideoxycytidine], in data set [1], the “Effect of L-nucleoside on D-nucleoside inhibition of mitochondrial DNA synthesis” value is listed as “could prevent the effect of AZT, ddC, DDI or D4T in inhibiting the synthesis of mitochondrial DNA synthesis; also recorded: appears to inhibit the ability of the co-administered D-nucleoside to inhibit the synthesis of mitochondrial DNA”. For the same compound, the “Effect of L-nucleoside on ID50 of co-administered D-nucleoside” value (from here on “Effect … of co-administered D-nucleoside”) in the data set with HIV-1IIIB [2] was “reduces the ID50 value of AZT, ddC, DDI and D4T; also recorded: decreases the ID50 of a co-administered D-nucleoside and vice versa”. For the same compound, the IC50 in the data set on HIV-1IIIB [3] was 450 nM. The activity at 1 µM in data set [4] (setting [5]) turned out to be 84%.
For `Nc1nc(=O)n([C@@H]2CS[C@H](CO)O2)cc1F` [L(-)FTC, β-L-5-fluoro-2',3'-dideoxy-3'-thiacytidine], the “Effect of L-nucleoside on D-nucleoside inhibition of mitochondrial DNA synthesis” value in data set [1] is “could prevent the effect of AZT, ddC, DDI or D4T in inhibiting the synthesis of mitochondrial DNA synthesis”. In addition, the “Effect … of co-administered D-nucleoside” value in the data set on HIV-1IIIB [2] is “reduces the ID50 value of AZT, ddC, DDI and D4T; also recorded: decreases the ID50 of a co-administered D-nucleoside and vice versa”. The IC50 in the data set on HIV-1IIIB [3] (unit inferred) turned out to be 600 nM. For the same compound, the activity at 0.1 µM in data set [4] (setting [6]) came to 104%. Further, the activity at 1 µM in data set [4] (setting [5]) came out at 87%. The activity at 10 µM in data set [4] (setting [7]) stood at 76%. Further, the “Day 4 Cell Growth - % of Control” value in data set [4] (single agent, 1.0 uM, listed as (-) FTC, 5760 min) was 84 % of Control; in data set [4] (single agent, 1.0 uM, listed as FTC, 5760 min) it was 87 % of Control.
Take `Nc1ccn([C@@H]2CS[C@H](CO)O2)c(=O)n1` [L(-)SddC, β-L-2',3'-dideoxy-3'-thiacytidine]: the “Effect … of co-administered D-nucleoside” value in the data set with HIV-1IIIB [2] was “reduces the ID50 value of AZT, ddC, DDI and D4T; also recorded: decreases the ID50 of a co-administered D-nucleoside and vice versa”. In the data set with HIV-1IIIB [3] (unit inferred), the IC50 was 3000 nM. For the same compound, in data set [4] (setting [6]), the activity at 0.1 µM came to 94%. Besides, the activity at 1 µM in data set [4] (setting [5]) came out at 89%. Further, the activity at 10 µM in data set [4] (setting [7]) was found to be 80%. In data set [4] (Homo sapiens, CCRF-CEM, 96 h, single agent, 50 uM, day 4, read-out: Day 4 Cell Growth - % of Control), the activity at 50 µM was 76%.
As to `Nc1ccn(C2CCC(CO)O2)c(=O)n1` [ddC, β-D-2',3'-dideoxycytidine], the “Nature of the anti-HIV combination effect with L-nucleosides (ID50)” value in the data set on HIV-1IIIB [2] (D-nucleoside co-administered with β-L-FddC, L(-)FTC, L(-)SddC or β-L-Fd4C) is recorded as “additively; also recorded: additive”. The IC50 in the data set on HIV-1IIIB [3] stood at 600 nM. The “Day 4 Cell Growth - % of Control” value is given as 86 % of Control in data set [4] (0.01 uM, in combination with 1 uM 3TC); 91 % of Control in data set [4] (0.01 uM, in combination with 1 uM (-) FTC); 88 % of Control in data set [4] (0.01 uM, in combination with 1 uM β-L-FddC); 83 % of Control in data set [4] (0.1 uM, in combination with 1 uM 3TC); 87 % of Control in data set [4] (0.1 uM, in combination with 1 uM (-) FTC); 84 % of Control in data set [4] (0.1 uM, in combination with 1 uM β-L-FddC). For the same compound, the “Day 4 Cell Growth - % of Control” value in data set [4] (1.0 uM, in combination with 1 uM 3TC) was 67 % of Control; in data set [4] (1.0 uM, in combination with 1 uM (-) FTC), 69 % of Control; in data set [4] (1.0 uM, in combination with 1 uM β-L-FddC) it was 76 % of Control; in data set [4] (single agent, 0.01 uM, 5760 min), 89 % of Control and 93 % of Control; in data set [4] (single agent, 0.1 uM, 5760 min) it was 83 % of Control and 93 % of Control; in data set [4] (single agent, 1.0 uM, 5760 min), 65 % of Control and 79 % of Control. Moreover, the activity at 0.01 µM in data set [4] (Homo sapiens, CCRF-CEM, 96 h, single agent, 0.01 uM, day 4, read-out: Day 4 Cell Growth - % of Control) turned out to be 92%. In addition, the activity at 0.1 µM in data set [4] (setting [6]) is 80%. Besides, the activity at 1 µM in data set [4] (setting [5]) came to 70%. The entries for the “Day 4 Cell Growth - % of Control, expected effect of the combined agents (parenthetical)” value in data set [4] (0.01 uM with 1 uM β-L-FddC), in data set [4] (0.1 uM with 1 uM β-L-FddC) and in data set [4] (1.0 uM with 1 uM β-L-FddC) were 78 % of Control, 78 % of Control and 66 % of Control, respectively.
